Source: patent publication EP0348735A2, “5-Chlor-4-cyano-thiazol-2-yl-oxyacetic-acid amide” (BAYER AG, priority 1988, dated 1990)

System: Testpflanzen
Assay: Pre-emergence test (herbicidal activity)
Type: in vivo
Settings: seeds watered with the preparation 24 h after sowing, rated after three weeks, compared in words with the prior-art comparison substance 2-(Benzthiazol-2-yl-oxy)-essigsäure-N-methyl-anilid, no numbers given
From the text: Zur Herstellung einer zweckmäßigen Wirkstoffzubereitung vermischt man 1 Gewichtsteil Wirkstoff mit der angegebenen Menge Lösungsmittel, gibt die angegebene Menge Emulgator zu und verdünnt das Konzentrat mit Wasser auf die gewünschte Konzentration.
Samen der Testpflanzen werden in normalen Boden ausgesät und nach 24 Stunden mit der Wirkstoffzubereitung begossen. Dabei hält man die Wassermenge pro Flächeneinheit zweckmäßigerweise konstant. Die Wirkstoffkonzentration in der Zubereitung spielt keine Rolle, entscheidend ist nur die Aufwandmenge des Wirkstoffs pro Flächeneinheit. Nach drei Wochen wird der Schädigungsgrad der Pflanzen bonitiert in % Schädigung im Vergleich zur Entwicklung der unbehandelten Kontrolle.

CN(C(=O)COc1nc(C#N)c(Cl)s1)c1ccccc1 [Beispiel 1, 2-(5-Chlor-4-cyanothiazol-2-yl-oxy)-essigsäure-N-methyl-anilid]
Wirksamkeit (Schädigungsgrad der Pflanzen in % Schädigung im Vergleich zur unbehandelten Kontrolle): deutliche Überlegenheit in der Wirksamkeit
